IC50 data for 33 compounds are collected here from patent US9284283B2, “Macrocyclic compounds for modulating IL-17” (ENSEMBLE THERAPEUTICS CORPORATION, priority 2012, dated 2016).

Read-outs that look alike come from different tables or passages of the source.

The target of test [1] is T1, biotinylated human IL-17 (binding to IL17R/Fc) (Homo sapiens, UniProt Q16552).
T1 construct: purchased R&D Systems 317-ILB (IL-17, biotinylated); 177-IR (IL17R/Fc)
T1 sequence (Q16552 20-155 limits assumed): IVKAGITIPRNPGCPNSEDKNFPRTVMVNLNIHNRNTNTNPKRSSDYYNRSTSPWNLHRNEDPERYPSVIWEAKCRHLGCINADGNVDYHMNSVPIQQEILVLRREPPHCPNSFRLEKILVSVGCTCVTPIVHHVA
Put plainly: IL-17 competition ELISA II (captured IL17R/Fc, biotinylated IL-17). Put shortly: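 Competition read-out: absorbance at 450 nm after streptavidin-HRP/TMB detection, fitted to a 4-parameter logistic model bounded by no-competitor and blank wells to give IC50. Compound was serially diluted 5-fold from 1 μM alongside 20 nM (stock) biotinylated IL-17 on IL17R/Fc (10 nM) captured via goat anti-human IgG, 30 min at room temperature.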

The subject of test [2] is IL-17A induced secretion of IL-6 in primary human RASF cells. In words: Inhibition of IL17A induced secretion of IL6 in human rheumatoid arthritis synovial fibroblast (RASF) cells. Format: cell-based. As to the method: This assay was used to determine the extent of inhibition of IL-17A induced secretion of IL-6 in primary human rheumatoid synovial fibroblast (RASF) cells by compounds of the invention. IL-17A is known to stimulate IL-6 production in RASF cells.
Low passage (passage 2-8) Primary human RASF cells (Asterand) were maintained in maintenance medium. Cells were detached from flasks by tryptic digestion and the cell density of the suspension determined. To each well of a 96 well culture plate was added 100 μL of seeding medium containing 50,000 cells/mL and the plate incubated overnight in a humidified 37° C., 5% CO2 incubator. The medium was replaced with fresh assay medium and cells were incubated for additional 5 hours in a humidified 37° C., 5% CO2 incubator prior to stimulation with recombinant human IL-17A (“rhIL-17A”). Prior to addition to cells, rhIL-17A (30 ng/mL) in assay medium was incubated with either DMSO alone, compounds, or anti-IL17 receptor antibody (3 μg/mL) for 1 hour at 37° C. The final concentration of DMSO in all samples was 0.25%. The final concentration of compounds varied from 0.03 μM to 25 μM.
Immediately before stimulation, cells were washed once with fresh assay medium. Then, 100 μL of the test samples was added in triplicate wells and the plates incubated for 20 hours in a humidified 37° C., 5% CO2 incubator. The assay medium from each well was collected and the IL-6 concentration in cell culture supernatants was determined by ELISA either immediately or after storage at −20° C.
A water-soluble tetrazolium salt (WST1) viability assay was immediately performed on the cells after the conditioned medium was collected using a WST1 reagent purchased from Roche. The concentration of IL-6 obtained from ELISA was normalized by the WST1 data.

For test [3], the target named is T2, recombinant human IL17a (binding to its receptor IL17R) (Homo sapiens, UniProt Q16552).
T2 construct: purchased R&D Systems 317-ILB (IL17a); 177-IR (IL17R/Fc)
T2 sequence (Q16552 20-155 limits assumed): T1 sequence (Q16552 20-155 limits assumed)
Put plainly: IL-17 competition ELISA I (IL17a coated, IL17R/Fc binding). Put shortly:
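Plates coated with 20 nM recombinant human IL17a received compound dilutions and 12 nM IL17R/Fc (final) for 30 min at room temperature. Bound receptor was detected with HRP anti-human Fc and TMB, read at 450 nm. IC50 came from a 4-parameter logistic fit between no-competitor and blank controls.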

Turning to `C[C@H]1NC(=O)[C@@H](Cc2ccc(NC(=O)[C@H](Cc3ccccc3Cl)NC(=O)Cc3ccc(F)cc3)cc2)N(C)C(=O)CC2(CCCC2)CC(=O)N(C)CCCCCNC1=O` [Compound 480], the IC50 in test [1] is under 100 nM; in test [2] (Homo sapiens, Fibroblast), 1000 to 10000 nM. Turning to `CC1NC(=O)C(Cc2ccc(NC(=O)C(Cc3ccccc3Cl)NC(=O)Cc3ccc(F)cc3)cc2)NC(=O)C2(CCCC2)CCC(=O)NCCCCCNC1=O` (stereo not drawn) [Compound 561], the IC50 is under 100 nM in test [1] and 1000 to 10000 nM in test [2].

Take `CN1CCCCCN(C)C(=O)[C@@H](Cc2ccncc2)NC(=O)[C@@H](Cc2ccc(NC(=O)[C@H](Cc3ccccc3Cl)NC(=O)C(F)(F)c3ccccc3)cc2)NC(=O)CC2(CCCC2)CC1=O` [Compound 627]: the IC50 is under 100 nM in test [1] and 100 to 1000 nM in test [2] (Homo sapiens, Fibroblast). In the same order, the values of `O=C1CC2(CCCC2)CC(=O)N[C@H](Cc2ccc(NC(=O)[C@H](Cc3ccccc3Cl)NC(=O)OCc3ccccc3)cc2)C(=O)NCCOCCOCCN1` [Compound 484] are under 100 nM and 100 to 1000 nM. In the case of `CN1CCCCCN(C)C(=O)[C@@H](CCC(N)=O)NC(=O)[C@@H](Cc2ccc(NC(=O)[C@@H](NC(=O)Cc3cccc(O)c3)C3CCCCC3)cc2)NC(=O)CC2(CCCC2)CC1=O` [Compound 646], the half-maximal inhibitory concentration (IC50) is under 100 nM in test [1] and 1000 to 10000 nM in test [2] (Homo sapiens, Fibroblast). For `O=C1CC2(CCCC2)CC(=O)N[C@H](Cc2ccc(NC(=O)[C@H](Cc3ccccc3Cl)NC(=O)Cc3ccc(F)cc3)cc2)C(=O)NCCOCCOCCN1` [Compound 490] the same measures were under 100 nM and 1000 to 10000 nM. In the case of `O=C1CNC(=O)[C@@H](Cc2ccc(NC(=O)[C@@H](NC(=O)Cc3ccc(CO)cc3)C3CCCCC3)cc2)NC(=O)CC2(CCCC2)CC(=O)NCCCCCN1` [Compound 375], the values for the IC50 in test [3] and in test [1] were 100 to 1000 nM and under 100 nM, respectively.

For the compound `O=C1CNC(=O)[C@@H](Cc2ccc(NC(=O)[C@@H](NC(=O)c3cccc(F)c3)C3CCCCC3)cc2)NC(=O)CC2(CCCC2)CC(=O)NCCCCCN1` [Compound 382], the 50% inhibitory concentration (IC50) was 100 to 1000 nM in test [3] and under 100 nM in test [1].

As for `O=C1CNC(=O)[C@@H](Cc2ccc(NC(=O)[C@@H](NC(=O)c3cccc(O)c3)C3CCCCC3)cc2)NC(=O)CC2(CCCC2)CC(=O)NCCCCCN1` [Compound 376], the half-maximal inhibitory concentration (IC50) was 100 to 1000 nM in test [3] and under 100 nM in test [1]. For `O=C1CC2(CCCC2)CC(=O)N[C@H](Cc2ccc(NC(=O)[C@H](Cc3ccccc3Cl)NC(=O)Cc3ccccc3)cc2)C(=O)NCCCCCCCCCN1` [Compound 349], the concentration for half-maximal inhibition (IC50) in test [3] was 1000 to 10000 nM; in test [1], under 100 nM.

As for `O=C1CNC(=O)[C@@H](Cc2ccc(NC(=O)[C@@H](NC(=O)Cc3ccc(F)c(F)c3)C3CCCCC3)cc2)NC(=O)CC2(CCCC2)CC(=O)NCCCCCN1` [Compound 373], the IC50 in test [3] and in test [1] was under 100 nM each time. As to `O=C1CC2(CCCC2)CC(=O)N[C@H](Cc2ccc(NC(=O)[C@@H](NC(=O)Cc3ccc(CO)cc3)C3CCCCC3)cc2)C(=O)NCCOCCOCCN1` [Compound 344], the IC50 fell in the range of 1000 to 10000 nM in test [3] and 100 to 1000 nM in test [1]. For the compound `O=C1CC2(CCCC2)CC(=O)N[C@H](Cc2ccc(NC(=O)[C@@H](NC(=O)Cc3ccc(CO)cc3)C3CCCCC3)cc2)C(=O)NCCCCCCCCCN1` [Compound 359], the half-maximal inhibitory concentration (IC50) is 1000 to 10000 nM in test [3] and under 100 nM in test [1]. `O=C1CNC(=O)[C@@H](Cc2ccc(NC(=O)[C@H](Cc3ccccc3Cl)NC(=O)Cc3cccnc3)cc2)NC(=O)CC2(CCCC2)CC(=O)NCCCCCN1` [Compound 198] gave a concentration for half-maximal inhibition (IC50) in test [2] (Homo sapiens, Fibroblast) of 1000 to 10000 nM. `CC(C)C[C@H](NC(=O)Cc1ccccc1)C(=O)Nc1ccc(C[C@H]2NC(=O)CC3(CCCC3)CC(=O)NCCCCCNC(=O)CNC2=O)cc1` [Compound 310]: the figures for the concentration for half-maximal inhibition (IC50) in test [3] and in test [1] were 100 to 1000 nM and under 100 nM, respectively.

For the compound `O=C1CC2(CCCC2)CC(=O)N[C@H](Cc2ccc(NC(=O)[C@H](Cc3ccccc3Cl)NC(=O)Cc3ccccc3)cc2)C(=O)NCCCCCCN1` [Compound 345], the results for the IC50 in test [3] and in test [1] were 100 to 1000 nM and under 100 nM, respectively. In the case of `CC[C@H](C)[C@H](NC(=O)Cc1ccccc1)C(=O)Nc1ccc(C[C@H]2NC(=O)CC3(CCCC3)CC(=O)NCCCCCNC(=O)CNC2=O)cc1` [Compound 311], the half-inhibitory concentration (IC50) in test [3] is 100 to 1000 nM; in test [1], under 100 nM. For `O=C1CC2(CCCC2)CC(=O)N[C@H](Cc2ccc(NC(=O)[C@H](Cc3ccccc3Cl)NC(=O)Cc3ccc(CO)cc3)cc2)C(=O)NCCCCCCCN1` [Compound 356], the IC50 in test [3] is 100 to 1000 nM; in test [1] it was under 100 nM. Take `CC(C)[C@H](NC(=O)Cc1ccccc1)C(=O)Nc1ccc(C[C@H]2NC(=O)CC3(CCCC3)CC(=O)NCCCCCNC(=O)CNC2=O)cc1` [Compound 313]: the results for the IC50 in test [3] and in test [1] were 100 to 1000 nM and under 100 nM, respectively. With `O=C1CNC(=O)[C@@H](Cc2ccc(NC(=O)[C@@H](NC(=O)c3cccnc3)C3CCCCC3)cc2)NC(=O)CC2(CCCC2)CC(=O)NCCCCCN1` [Compound 362], the values for the IC50 in test [3] and in test [1] were 1000 to 10000 nM and 100 to 1000 nM, respectively. As to `O=C1CC2(CCCC2)CC(=O)N[C@H](Cc2ccc(NC(=O)[C@H](Cc3ccccc3Cl)NC(=O)Cc3ccccc3)cc2)C(=O)NCCCCCCCCN1` [Compound 259], the 50% inhibitory concentration (IC50) was 100 to 1000 nM in test [3] and under 100 nM in test [1].

Regarding `O=C1CC2(CCCC2)CC(=O)N[C@H](Cc2ccc(NC(=O)[C@@H](NC(=O)Cc3ccc(CO)cc3)C3CCCCC3)cc2)C(=O)NCCCCCCCN1` [Compound 357], the concentration for half-maximal inhibition (IC50) in test [3] is 100 to 1000 nM; in test [1] it was under 100 nM.

As to `O=C1CNC(=O)[C@@H](Cc2ccc(NC(=O)[C@@H](NC(=O)c3ccccc3)C3CCCCC3)cc2)NC(=O)CC2(CCCC2)CC(=O)NCCCCCN1` [Compound 379], the values for the IC50 in test [3] and in test [1] were 1000 to 10000 nM and under 100 nM, respectively. In the same order, the values of `O=C1CNC(=O)[C@@H](Cc2ccc(NC(=O)[C@@H](NC(=O)c3cccnc3)C3CCCCC3)cc2)NC(=O)CC2(CCCC2)CC(=O)N[C@H](C(=O)O)CCCCN1` [Compound 384] are 100 to 1000 nM and under 100 nM. On to `O=C1CNC(=O)[C@@H](Cc2ccc(NC(=O)[C@@H](NC(=O)Cc3ccc(F)cc3F)C3CCCCC3)cc2)NC(=O)CC2(CCCC2)CC(=O)NCCCCCN1` [Compound 374], for which the IC50 in test [3] and in test [1] was under 100 nM throughout. On to `Cc1ccccc1C[C@H](NC(=O)C(F)(F)c1ccccc1)C(=O)Nc1ccc(C[C@H]2NC(=O)CC3(CCCC3)CC(=O)N(C)CCCCCNC(=O)[C@@H](C)NC2=O)cc1` [Compound 512], for which, in test [2] (Homo sapiens, Fibroblast), the IC50 lay in the range of 100 to 1000 nM. As for `O=C1CNC(=O)[C@@H](Cc2ccc(NC(=O)[C@@H](NC(=O)Cc3ccc(F)cc3)C3CCCCC3)cc2)NC(=O)CC2(CCCC2)CC(=O)NCCCCCN1` [Compound 380], in test [2] (Homo sapiens, Fibroblast), the IC50 fell in the range of 100 to 1000 nM. Regarding `O=C1CC2(CCCC2)CC(=O)N[C@H](Cc2ccc(NC(=O)[C@H](Cc3ccccc3Cl)NC(=O)Cc3ccccc3)cc2)C(=O)NCCOCCOCCN1` [Compound 292], the figures for the IC50 in test [3] and in test [1] were 100 to 1000 nM and under 100 nM, respectively.

With `O=C1CC2(CCCC2)CC(=O)N[C@H](Cc2ccc(NC(=O)[C@H](Cc3ccccc3Cl)NC(=O)Cc3ccc(CO)cc3)cc2)C(=O)NCCCCCCCCCN1` [Compound 358], the IC50 in test [3] is 100 to 1000 nM; in test [1], under 100 nM.

`O=C1CC2(CCCC2)CC(=O)N[C@H](Cc2ccc(NC(=O)[C@H](Cc3ccccc3Cl)NC(=O)Cc3ccc(CO)cc3)cc2)C(=O)NC/C=C/CCCCN1` [Compound 364]: the 50% inhibitory concentration (IC50) is 100 to 1000 nM in test [3] and under 100 nM in test [1].

Take `CCCC[C@H](NC(=O)Cc1ccccc1)C(=O)Nc1ccc(C[C@H]2NC(=O)CC3(CCCC3)CC(=O)NCCCCCNC(=O)CNC2=O)cc1` [Compound 312]: the results for the IC50 in test [3] and in test [1] were 100 to 1000 nM and under 100 nM, respectively.

For the compound `O=C1CC2(CCCC2)CC(=O)N[C@H](Cc2ccc(NC(=O)[C@@H](NC(=O)Cc3ccccc3)C3CCCCC3)cc2)C(=O)NCCCCCCN1` [Compound 346], the concentration for half-maximal inhibition (IC50) in test [3] is 1000 to 10000 nM; in test [1], under 100 nM. For `C[C@H]1NC(=O)[C@@H](Cc2ccc(NC(=O)[C@@H](NC(=O)Cc3ccc(CO)cc3)C3CCCCC3)cc2)NC(=O)CC2(CCCC2)CC(=O)NCCCCCNC1=O` [Compound 360], the IC50 is 100 to 1000 nM in test [3] and under 100 nM in test [1].
